The source of these data is ChEMBL document CHEMBL5608244, “Preclinical Evaluation of Dihydropyrazole-Cored Positron Emission Tomography (PET) Ligands for Imaging of Receptor-Interacting Serine/Threonine Protein Kinase 1 (RIPK1) in the Brain” (J Med Chem, 2024).

A short description of data set [1]: Retention time of the compound by HPLC method. The data set is classed as physicochemical.
The nature of data set [2]: Drug uptake in Sprague-Dawley rat bone at 10 to 17.6 MBq, iv treated upto 30 mins by PET analysis. The data set is classed as ADME, organism-based, Bone element. The following applies: in vivo, 0.5 h, dose 10-17.6 MBq.
The nature of data set [3]: Stability in saline measured for 60 to 150 mins by reversed-phase HPLC analysis. The data set is classed as physicochemical. The following applies: buffer; time 60-150 min.
The nature of data set [4]: Drug uptake in Sprague-Dawley rat brain at 10 to 17.6 MBq, iv pretreated with 1-(5-(3-fluorophenyl)-4,5-dihydro-1H-pyrazol-1-yl)-2,2-dimethylpropan-1-one followed by compound administration measured upto 30 mins by PET analysis. The data set is classed as ADME, organism-based. As to conditions: in vivo, 0.5 h, dose 10-17.6 MBq; call rule not given here.
Data set [5] in a line: Lipophilicity, logD of compound at pH 7.4 by shake flask method. The data set is classed as physicochemical. The following applies: buffer.
Data set [6] is described as follows: Stability in Balb/c mouse plasma measured for 60 to 150 mins by reversed-phase HPLC analysis. The data set is classed as ADME. As to conditions: time 60-150 min.
The nature of data set [7]: Drug uptake in Sprague-Dawley rat brain at 10 to 17.6 MBq, iv treated for about 1 min by PET analysis. The data set is classed as ADME, organism-based. As to conditions: in vivo, dose 10-17.6 MBq.

As to `CC(C)(C)C(=O)N1N=CCC1c1cc(F)cc(F)c1` (stereo not given), in data set [1], the Retention_time was found to be 13.66 min.

As usually defined, the logD is lipophilicity at a set pH, counting ionised and neutral species. A higher logD goes with higher lipophilicity. As for `CC(C)(C)C(=O)N1N=CCC1c1cc(F)cc([18F])c1` (stereo not given), the values for the Drug uptake result in data set [2] and in data set [4] were “Not Active” and “Active”, respectively. The Stability is on record as over 99% in data set [3] and over 97% in data set [6]. Also, the logD in data set [5] was 2.58. For the same molecule, the Retention_time in data set [1] came to 13.76 min. For the same molecule, the SUVmax in data set [7] is 1.8.

`Cc1ccc(C2CC=NN2C(=O)C(C)(C)C)cc1[18F]` (stereo not given): the Drug uptake result in data set [2] was “Not Active”; in data set [4], “Active”. The same molecule yielded a logD in data set [5] of 2.98. The molecule further gave a Retention_time in data set [1] of 21.81 min. This molecule came in with an SUVmax in data set [7] of 1.4.

`Cc1ccc(C2CC=NN2C(=O)C(C)(C)C)cc1F` (stereo not given) showed a Retention_time in data set [1] of 21.7 min.

`CC(C)(C)C(=O)N1N=CCC1c1cccc(F)c1` (stereo not given): the Retention_time in data set [1] was determined as 21.74 min.
